Measurements reported in patent publication US20240301023A1 (priority 2020, published 2024).
Read-outs that look alike come from different tables or passages of the source. Square brackets hold non-standard residues; d marks the D form. Ends that are not written are not given here. Peptide text beside a SMILES is read from it. Phe(4-NO2) = N[C@@H](Cc1ccc([N+](=O)[O-])cc1)C(=O)O; Phe(4-Cl) = N[C@@H](Cc1ccc(Cl)cc1)C(=O)O; Phe(4-F) = N[C@@H](Cc1ccc(F)cc1)C(=O)O; NMeR = CN[C@@H](CCCNC(=N)N)C(=O)O; Aoc = NCCCCCCCC(=O)O; Sar = CNCC(=O)O

What was measured:
[1] = target: T1, bovine pancreatic trypsin (Bos taurus, UniProt P00760); assay: Stability in bovine trypsin; format: in vitro ADME; conditions: bovine pancreatic trypsin 2.5 μg/mL, NH4HCO3 buffer pH 8-8.5, 37° C., 100 μM peptide; for half-life at 100 µM: bovine pancreatic trypsin solution; for half-life: isolated enzyme trypsin
T1 construct: from tissue; host or cells: bovine pancreas
T1 sequence (P00760 24-246): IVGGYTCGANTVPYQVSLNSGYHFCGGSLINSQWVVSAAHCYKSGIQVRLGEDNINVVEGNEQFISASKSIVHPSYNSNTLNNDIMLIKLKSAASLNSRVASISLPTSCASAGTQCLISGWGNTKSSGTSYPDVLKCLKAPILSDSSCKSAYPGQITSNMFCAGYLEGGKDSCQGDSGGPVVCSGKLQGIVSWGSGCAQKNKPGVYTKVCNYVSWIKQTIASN
Description: The stability of the peptides was analysed in typsin, plasma and water. Stability of linear peptides is generally low due to rapid degradation by endogenous peptidases and proteases. While stability in bodily fluids is important, absolute stability may not be prudent or desirable due to potential build-up in vivo leading to adverse side effects, and/or hazards to the environment and recirculation of exceptionally stable compounds in waterways. Thus, compounds that are extremely stable in either plasma or typsin are not generally considered “drug-like”.
Stability in bovine trypsin was analysed for SEQ ID Nos. 2 to 7 and 11 to 17. Peptides were added to trypsin solution (bovine pancreatic trypsin 2.5 μg/mL in NH4HCO3 buffer, pH approximately 8-8.5, 37° C.) in a water bath with final concentrations of 100 μM peptide. A 50 μL sample was taken immediately and precipitated in 150 μL of cold acetonitrile (9:1 acetonitrile:water) This sample became the baseline, or t=0 min sample. The trypsin peptide mixture was immediately returned to the water bath and subsequent 50 μL samples were taken at 5, 10, 15, 30, 60 and 120 min. At each time point, the 50 μL sample was collected and immediately added to cold acetonitrile (ACN). Each sample was vortexed for 30 sec and then centrifuged at room temperature (RT) (13K rpm, 5 min). 150 μL of the supernatant was taken and directly place in a glass HPLC vial for LCMS analysis.

Stability in rat plasma = format: in vitro ADME; conditions: 37° C., 100 μM peptide; for half-life at 100 µM: both sexes, Wistar
Description: Stability in plasma was assessed in rat plasma. Plasma was collected in-house from adult mixed-gender Wistar rats, prepared using 2% EDTA as per standard practice. Peptides were added to the rat plasma samples at 37° C. in a water bath with final concentrations of 100 μM (1:9 peptide in water:plasma). The assay was then carried out in the same manner as the assay in bovine trypsin.

[2] = target: Kappa opioid receptor (KOR) (Homo sapiens, UniProt P41145); assay: cell-based; format: cell-based; conditions: for EC50: read-out: Activity (EC50, nM) KOR
Kappa opioid receptor (KOR), sequence (P41145 whole entry): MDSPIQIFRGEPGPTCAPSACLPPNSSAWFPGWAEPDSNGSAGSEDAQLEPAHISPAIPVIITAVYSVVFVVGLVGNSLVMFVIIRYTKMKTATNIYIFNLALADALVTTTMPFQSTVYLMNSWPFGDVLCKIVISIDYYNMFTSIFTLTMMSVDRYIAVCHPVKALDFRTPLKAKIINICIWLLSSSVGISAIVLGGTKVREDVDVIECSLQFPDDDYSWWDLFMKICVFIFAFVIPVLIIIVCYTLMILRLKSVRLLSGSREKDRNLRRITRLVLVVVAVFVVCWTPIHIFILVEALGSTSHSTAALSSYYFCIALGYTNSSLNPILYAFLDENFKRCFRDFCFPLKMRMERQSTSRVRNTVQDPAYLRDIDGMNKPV

KOR = KOR (Homo sapiens, UniProt P41145); assay: cell-based; format: cell-based
KOR, sequence (P41145 whole entry): as above

KOPr = KOPr (Homo sapiens, UniProt P41145); format: cell-based
KOPr, sequence (P41145 whole entry): as above

[3] = target: Delta opioid receptor (DOR) (Homo sapiens, UniProt P41143); assay: cell-based; format: cell-based
Delta opioid receptor (DOR), sequence (P41143 whole entry): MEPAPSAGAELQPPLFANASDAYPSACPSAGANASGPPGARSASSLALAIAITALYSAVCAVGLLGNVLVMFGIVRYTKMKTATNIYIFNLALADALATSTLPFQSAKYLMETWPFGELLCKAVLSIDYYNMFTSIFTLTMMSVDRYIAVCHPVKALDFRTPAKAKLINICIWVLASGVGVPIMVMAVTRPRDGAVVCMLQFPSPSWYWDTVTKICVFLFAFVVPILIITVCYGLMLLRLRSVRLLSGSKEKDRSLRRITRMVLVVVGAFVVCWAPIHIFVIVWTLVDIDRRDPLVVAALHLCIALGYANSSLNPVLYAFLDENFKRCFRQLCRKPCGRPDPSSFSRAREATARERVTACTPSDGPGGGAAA

Mu opioid receptor (MOR) = Mu opioid receptor (MOR) (Homo sapiens, UniProt P35372); assay: cell-based; format: cell-based
Mu opioid receptor (MOR), sequence (P35372 whole entry): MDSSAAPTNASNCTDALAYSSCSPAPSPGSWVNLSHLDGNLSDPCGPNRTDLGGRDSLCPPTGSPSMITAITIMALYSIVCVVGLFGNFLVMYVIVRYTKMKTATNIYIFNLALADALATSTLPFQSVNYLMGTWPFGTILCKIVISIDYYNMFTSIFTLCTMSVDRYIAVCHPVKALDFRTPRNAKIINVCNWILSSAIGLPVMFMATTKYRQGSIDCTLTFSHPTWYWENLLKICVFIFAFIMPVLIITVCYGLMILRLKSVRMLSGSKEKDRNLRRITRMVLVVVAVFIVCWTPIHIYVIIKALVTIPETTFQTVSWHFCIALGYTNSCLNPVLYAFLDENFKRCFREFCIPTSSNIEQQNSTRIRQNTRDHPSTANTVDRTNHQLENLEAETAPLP

[4] = read-out: Activity (EC50, nM) DOR
[5] = read-out: Activity (EC50, nM) MOR

| Molecule | half-life at 100 µM [1] [min] | half-life at 100 µM (Stability in rat plasma) [min] | cAMP assay KOR 1 μM [2] | cAMP assay KOR 10 μM [2] | cAMP assay DOR 1 μM [3] | cAMP assay DOR 10 μM [3] | cAMP assay MOR 1 μM (Mu opioid receptor (MOR)) | cAMP assay MOR 10 μM (Mu opioid receptor (MOR)) | other results |
| --- | --- | --- | --- | --- | --- | --- | --- | --- | --- |
| CC(C)C[C@H](NC(=O)[C@H](Cc1ccc(Cl)cc1)NC(=O)CN(C)C(=O)[C@@H](N)Cc1ccc(O)cc1)C(=O)N[C@@H](CCCNC(=N)N)C(=O)N(C)[C@@H](CCCNC(=N)N)C(N)=O [SEQ ID NO. 17, NH2-Tyr-Sar-(4-Cl)Phe-Leu-Arg-NMA-NH2] (H-Y[Sar][Phe(4-Cl)]LR[NMeR]-NH2) | > 1000 | 174 |  |  |  |  |  |  |  |
| CC(C)C[C@H](NC(=O)[C@H](Cc1ccc([N+](=O)[O-])cc1)NC(=O)CN(C)C(=O)[C@@H](N)Cc1ccc(O)cc1)C(=O)N[C@@H](CCCNC(=N)N)C(=O)N(C)[C@@H](CCCNC(=N)N)C(N)=O [SEQ ID NO. 18, NH2-Tyr-Sar-(4-NO2)Phe-Leu-Arg-NMA-NH2] (H-Y[Sar][Phe(4-NO2)]LR[NMeR]-NH2) |  |  |  |  |  |  |  |  | EC50 [2]: 1.77 nM; KOR desensitisation (change of cAMP maximal response after pre-treatment) (KOR): no sign of desensitisation; bias factor (β) relative to U50488H (KOPr): bias towards cAMP; pERK1/2 activity (KOPr): failed to show any pERK activity |
| CC[C@H](C)[C@H](NC(=O)[C@@H](CCCNC(=N)N)NC(=O)[C@H](CCCNC(=N)N)NC(=O)[C@H](CC(C)C)NC(=O)[C@H](Cc1ccc(Cl)cc1)NC(=O)CN(C)C(=O)[C@@H](N)Cc1ccc(O)cc1)C(=O)N[C@H](CCCNC(=N)N)C(N)=O [SEQ ID NO. 25, NH2-Tyr-Sar-(4-Cl)Phe-Leu-Arg-DArg-Ile-DArg-NH2] |  |  |  |  |  |  |  |  | EC50 [3]: > 10000 nM; EC50 (Mu opioid receptor (MOR)): 1610 nM |
| CC(C)C[C@H](NC(=O)[C@H](Cc1ccccc1)NC(=O)CN(C)C(=O)[C@@H](N)Cc1ccc(O)cc1)C(=O)N[C@@H](CCCNC(=N)N)C(=O)N[C@H](CCCNC(=N)N)C(N)=O [SEQ ID NO. 3, NH2-Tyr-Sar-Phe-Leu-Arg-DArg-NH2] (H-Y[Sar]FLR[dR]-NH2) |  | 72 | 27.24 | 43.58 | −2.27 | 2.24 | −0.68 | 2.17 | Half Life Trypsin [1]: 13.6 min |
| CC(C)C[C@H](NC(=O)[C@H](Cc1ccccc1)NC(=O)CN(C)C(=O)[C@@H](N)Cc1ccc(O)cc1)C(=O)N[C@H](CCCNC(=N)N)C(=O)N[C@@H](CCCNC(=N)N)C(N)=O [SEQ ID NO. 6, NH2-Tyr-Sar-Phe-Leu-DArg-Arg-NH2] (H-Y[Sar]FL[dR]R-NH2) |  |  | 14.22 | 35.13 | −0.03 | 2.25 | 1.04 | 7.84 | half-life [1]: 1260 min |
| CC(C)C[C@H](NC(=O)[C@H](Cc1ccc(Cl)cc1)NC(=O)CN(C)C(=O)[C@@H](N)Cc1ccc(O)cc1)C(=O)N[C@@H](CCCCN)C(=O)N[C@H](CCCNC(=N)N)C(N)=O [SEQ ID NO. 16, NH2-Tyr-Sar-(4-Cl)Phe-Leu-Lys-DArg-NH2] (H-Y[Sar][Phe(4-Cl)]LK[dR]-NH2) |  | 69.9 |  |  |  |  |  |  | Half Life Trypsin [1]: 69.9 min |
| CC(C)C[C@H](NC(=O)[C@H](Cc1ccc(Cl)cc1)NC(=O)CN(C)C(=O)[C@@H](N)Cc1ccc(O)cc1)C(=O)N[C@@H](CCCNC(=N)N)C(=O)N[C@H](CCCNC(=N)N)C(N)=O [SEQ ID NO. 11, NH2-Tyr-Sar-(4-Cl)Phe-Leu-Arg-DArg-NH2] (H-Y[Sar][Phe(4-Cl)]LR[dR]-NH2) | 15.4 |  | 27.7 | 33.99 | −1.18 | 4.27 | −0.86 | 1.37 |  |
| CC(C)C[C@H](NC(=O)[C@H](Cc1ccc([N+](=O)[O-])cc1)NC(=O)CN(C)C(=O)[C@@H](N)Cc1ccc(O)cc1)C(=O)N(C)[C@@H](CCCNC(=N)N)C(=O)N[C@H](CCCNC(=N)N)C(N)=O [SEQ ID NO. 15, NH2-Tyr-Sar-(4-NO2)Phe-Leu-NMA-DArg-NH2] (H-Y[Sar][Phe(4-NO2)]L[NMeR][dR]-NH2) |  |  |  |  |  |  |  |  | EC50 [3, 4]: 1320 nM |
| CC(C)C[C@H](NC(=O)[C@H](Cc1ccccc1)NC(=O)CN(C)C(=O)[C@@H](N)Cc1ccc(O)cc1)C(=O)N[C@H](CCCNC(=N)N)C(=O)N[C@H](CCCNC(=N)N)C(N)=O [SEQ ID NO. 7, NH2-Tyr-Sar-Phe-Leu-DArg-DArg-NH2] (H-Y[Sar]FL[dR][dR]-NH2) |  |  | 18.27 | 36.03 | −0.68 | 2.53 | 0.13 | 4.19 | half-life [1]: 587 min |
| CC(C)C[C@H](NC(=O)[C@H](Cc1ccc(Cl)cc1)NC(=O)CN(C)C(=O)[C@@H](N)Cc1ccc(O)cc1)C(=O)N[C@@H](CCCNC(=N)N)C(=O)N[C@H](CCCNC(=N)N)C(=O)NCCCCCCCC(=O)O [SEQ ID NO. 28, NH2-Tyr-Sar-(4-Cl)Phe-Leu-Arg-DArg-C7H14-COOH] (H-Y[Sar][Phe(4-Cl)]LR[dR][Aoc]-OH) |  |  |  |  |  |  |  |  | EC50 [3]: > 10000 nM; EC50 (Mu opioid receptor (MOR)): > 10000 nM |
| CC(C)C[C@H](NC(=O)[C@H](Cc1ccc(F)cc1)NC(=O)CN(C)C(=O)[C@@H](N)Cc1ccc(O)cc1)C(=O)N(C)[C@@H](CCCNC(=N)N)C(=O)N[C@H](CCCNC(=N)N)C(N)=O [SEQ ID NO. 14, NH2-Tyr-Sar-(4-F)Phe-Leu-NMA-DArg-NH2] (H-Y[Sar][Phe(4-F)]L[NMeR][dR]-NH2) | 1630 | 324 |  |  |  |  |  |  | EC50 [3, 4]: 1660 nM; EC50 (Mu opioid receptor (MOR); [5]): 4000 nM |
| CC[C@H](C)[C@H](NC(=O)[C@@H](CCCNC(=N)N)NC(=O)[C@H](CCCNC(=N)N)NC(=O)[C@H](CC(C)C)NC(=O)[C@H](Cc1ccc(Cl)cc1)NC(=O)CN(C)C(=O)[C@@H](N)Cc1ccc(O)cc1)C(=O)N[C@@H](CCCNC(=N)N)C(N)=O [SEQ ID NO. 20, NH2-Tyr-Sar-(4-Cl)Phe-Leu-Arg-DArg-Ile-Arg-NH2] |  |  |  |  |  |  |  |  | cAMP activity in the presence of naloxone, KOR cells [2]: significantly inhibited; EC50 [3]: 3580 nM; EC50 (Mu opioid receptor (MOR)): > 10000 nM; reduction in maximal response after pre-treatment (KOR; read-out: reduction in maximal response): ~50% |
| CC(C)C[C@H](NC(=O)[C@H](Cc1ccc(F)cc1)NC(=O)CN(C)C(=O)[C@@H](N)Cc1ccc(O)cc1)C(=O)N[C@@H](CCCNC(=N)N)C(=O)N[C@H](CCCNC(=N)N)C(N)=O [SEQ ID NO. 12, NH2-Tyr-Sar-(4-F)Phe-Leu-Arg-DArg-NH2] (H-Y[Sar][Phe(4-F)]LR[dR]-NH2) | 13.7 | 31.9 |  |  |  |  |  |  | EC50 [2]: 6.7 nM; EC50 (Mu opioid receptor (MOR); [5]): 3450 nM |
| 2-NH2-Phe-Phe-Leu-Gly-Arg-Arg (FFLGRR; also: 2-NH2 (N-terminal amino modification) on Phe, placement unclear) [SEQ ID NO. 36, reference compound] |  |  | no measurable potency |  | no measurable potency |  | no measurable potency |  |  |
| CC(C)C[C@H](NC(=O)[C@H](Cc1ccc(Cl)cc1)NC(=O)CN(C)C(=O)[C@@H](N)Cc1ccc(O)cc1)C(=O)N(C)[C@@H](CCCNC(=N)N)C(=O)N[C@H](CCCNC(=N)N)C(N)=O [SEQ ID NO. 13, NH2-Tyr-Sar-(4-Cl)Phe-Leu-NMA-DArg-NH2] (H-Y[Sar][Phe(4-Cl)]L[NMeR][dR]-NH2) | 276 | 239 |  |  |  |  |  |  | EC50 [3]: > 10000 nM; EC50 (Mu opioid receptor (MOR)): > 10000 nM |
| CC(C)C[C@H](NC(=O)[C@H](Cc1ccc([N+](=O)[O-])cc1)NC(=O)CN(C)C(=O)[C@@H](N)Cc1ccc(O)cc1)C(=O)N[C@H](CCCNC(=N)N)C(=O)N[C@@H](CCCNC(=N)N)C(N)=O [SEQ ID NO. 5, NH2-Tyr-Sar-(4-NO2)Phe-Leu-DArg-Arg-NH2] (H-Y[Sar][Phe(4-NO2)]L[dR]R-NH2) |  |  | 33.44 | 43.14 | 0.05 | 2.02 | −0.05 | 4.32 | Half Life Trypsin [1]: 3250.0 min; half-life (Stability in rat plasma): 28.7 min |
